Experimental data reported in BindingDB's records for PubMed 7518514 (Abbott Laboratories, 1994).

Columns and labels:
Histamine H1 receptor = Histamine H1 receptor (Homo sapiens, UniProt P35367)
D(1A) dopamine receptor = D(1A) dopamine receptor (Homo sapiens, UniProt P21728)
Adenylate cyclase type 9 = Adenylate cyclase type 9 (Homo sapiens, UniProt O60503)
[1] = target: Solute carrier family 22 member 1 (Rattus norvegicus, UniProt Q63089)
[2] = target: Inositol-tetrakisphosphate 1-kinase (Homo sapiens, UniProt Q13572)
[3] = target: 5-hydroxytryptamine receptor 1A/1B/1D/2C (Homo sapiens, UniProt P08908+P28221+P28222+P28335)
[4] = target: Muscarinic acetylcholine receptor M1 (Mus musculus, UniProt P12657)
[5] = target: Sodium-dependent noradrenaline transporter (Homo sapiens, UniProt P23975)
[6] = target: Outer capsid protein sigma-1 (Reovirus type 3 (strain Dearing), UniProt P03528)
[7] = target: Type-2 angiotensin II receptor (Homo sapiens, UniProt P50052)
[8] = target: Voltage-dependent T-type calcium channel subunit alpha-1H (Homo sapiens, UniProt O95180)
VIP peptides = VIP peptides (Homo sapiens, UniProt P01282)
Sequence of VIP peptides (P01282 125-152 limits assumed): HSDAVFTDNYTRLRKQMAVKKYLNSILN

[9] = target: Chloride channel protein 1 (Homo sapiens, UniProt P35523)
Sequence of Chloride channel protein 1 (P35523 whole entry): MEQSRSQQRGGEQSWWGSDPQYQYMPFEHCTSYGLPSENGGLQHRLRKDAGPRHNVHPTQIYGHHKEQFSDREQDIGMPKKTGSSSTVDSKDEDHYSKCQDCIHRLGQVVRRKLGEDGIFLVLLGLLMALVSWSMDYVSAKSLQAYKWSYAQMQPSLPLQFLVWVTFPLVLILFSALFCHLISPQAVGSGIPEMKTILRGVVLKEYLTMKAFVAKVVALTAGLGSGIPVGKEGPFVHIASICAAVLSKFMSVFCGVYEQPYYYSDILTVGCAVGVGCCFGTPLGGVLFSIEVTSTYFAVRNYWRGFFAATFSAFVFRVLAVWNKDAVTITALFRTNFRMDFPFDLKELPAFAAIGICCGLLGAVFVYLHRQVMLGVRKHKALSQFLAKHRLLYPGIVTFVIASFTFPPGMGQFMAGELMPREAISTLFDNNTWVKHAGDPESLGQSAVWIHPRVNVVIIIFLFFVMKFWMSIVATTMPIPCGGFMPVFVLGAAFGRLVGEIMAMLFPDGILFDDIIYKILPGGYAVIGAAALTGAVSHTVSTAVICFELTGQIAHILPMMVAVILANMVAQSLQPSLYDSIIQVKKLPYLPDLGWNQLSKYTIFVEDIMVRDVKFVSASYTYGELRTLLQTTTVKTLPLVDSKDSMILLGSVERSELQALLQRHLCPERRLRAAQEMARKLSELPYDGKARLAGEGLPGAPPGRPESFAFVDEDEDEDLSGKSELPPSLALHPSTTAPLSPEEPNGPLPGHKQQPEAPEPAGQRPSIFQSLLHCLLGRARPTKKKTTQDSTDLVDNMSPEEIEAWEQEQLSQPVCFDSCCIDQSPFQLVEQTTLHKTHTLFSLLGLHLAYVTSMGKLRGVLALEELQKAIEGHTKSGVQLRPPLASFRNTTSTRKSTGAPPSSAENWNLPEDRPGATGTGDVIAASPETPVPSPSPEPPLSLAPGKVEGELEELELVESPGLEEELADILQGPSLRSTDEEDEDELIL

[10] = target: Glutamate receptor ionotropic, NMDA 1 (Rattus norvegicus, UniProt P35439)
[11] = target: Gamma-aminobutyric acid type B receptor subunit 1 (Homo sapiens, UniProt Q9UBS5)
Sequence of Gamma-aminobutyric acid type B receptor subunit 1 (Q9UBS5 whole entry): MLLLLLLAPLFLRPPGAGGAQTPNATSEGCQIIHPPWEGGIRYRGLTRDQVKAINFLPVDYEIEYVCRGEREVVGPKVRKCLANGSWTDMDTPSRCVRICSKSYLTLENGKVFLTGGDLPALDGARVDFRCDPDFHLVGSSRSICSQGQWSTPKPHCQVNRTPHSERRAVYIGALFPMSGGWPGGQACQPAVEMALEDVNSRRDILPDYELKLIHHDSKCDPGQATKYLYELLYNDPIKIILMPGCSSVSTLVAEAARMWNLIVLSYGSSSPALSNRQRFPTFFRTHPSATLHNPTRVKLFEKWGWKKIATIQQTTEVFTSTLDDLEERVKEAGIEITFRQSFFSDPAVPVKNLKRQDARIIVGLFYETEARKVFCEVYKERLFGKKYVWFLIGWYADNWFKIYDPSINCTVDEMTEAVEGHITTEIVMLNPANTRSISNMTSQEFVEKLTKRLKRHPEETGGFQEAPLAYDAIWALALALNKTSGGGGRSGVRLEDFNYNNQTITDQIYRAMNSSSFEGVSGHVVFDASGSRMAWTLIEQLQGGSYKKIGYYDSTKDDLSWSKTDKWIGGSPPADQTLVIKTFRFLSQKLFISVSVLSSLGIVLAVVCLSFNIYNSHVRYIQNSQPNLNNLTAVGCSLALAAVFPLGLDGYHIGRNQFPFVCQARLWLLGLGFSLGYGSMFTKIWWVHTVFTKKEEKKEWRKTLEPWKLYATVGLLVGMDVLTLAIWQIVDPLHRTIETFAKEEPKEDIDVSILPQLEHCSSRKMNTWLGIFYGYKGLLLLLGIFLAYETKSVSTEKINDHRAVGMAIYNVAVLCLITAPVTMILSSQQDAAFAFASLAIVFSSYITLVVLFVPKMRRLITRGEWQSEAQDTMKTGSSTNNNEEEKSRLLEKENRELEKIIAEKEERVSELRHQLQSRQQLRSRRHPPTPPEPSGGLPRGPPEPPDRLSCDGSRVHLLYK

[12] = target: Glutamate receptor ionotropic, kainate 2 (Homo sapiens, UniProt Q13002)
Beta-nerve growth factor = Beta-nerve growth factor (Homo sapiens, UniProt P01138)
Sequence of Beta-nerve growth factor (P01138 122-241 limits assumed): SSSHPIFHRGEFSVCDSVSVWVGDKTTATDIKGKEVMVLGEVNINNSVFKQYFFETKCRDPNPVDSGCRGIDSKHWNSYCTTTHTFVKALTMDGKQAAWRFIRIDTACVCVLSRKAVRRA

Glutamate receptor 3 = Glutamate receptor 3 (Homo sapiens, UniProt P42263)
[13] = target: Gamma-aminobutyric acid receptor subunit alpha-1 (Homo sapiens, UniProt P14867)
Sequence of Gamma-aminobutyric acid receptor subunit alpha-1 (P14867 whole entry): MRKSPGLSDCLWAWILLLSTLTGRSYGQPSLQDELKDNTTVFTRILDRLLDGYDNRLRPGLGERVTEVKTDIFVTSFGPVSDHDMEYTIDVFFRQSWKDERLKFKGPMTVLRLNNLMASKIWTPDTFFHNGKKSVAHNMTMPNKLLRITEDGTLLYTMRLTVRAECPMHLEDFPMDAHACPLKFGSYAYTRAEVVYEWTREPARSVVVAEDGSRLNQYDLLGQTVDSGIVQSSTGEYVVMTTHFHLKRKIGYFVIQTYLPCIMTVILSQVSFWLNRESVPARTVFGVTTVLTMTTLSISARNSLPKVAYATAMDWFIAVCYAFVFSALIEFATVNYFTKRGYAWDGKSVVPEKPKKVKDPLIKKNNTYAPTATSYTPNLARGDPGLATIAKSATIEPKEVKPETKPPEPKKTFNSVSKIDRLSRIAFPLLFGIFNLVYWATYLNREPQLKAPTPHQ

[14] = target: Beta-2 adrenergic receptor (Mus musculus, UniProt P18762)
Protein kinase C = Protein kinase C (Drosophila melanogaster, UniProt P13678)
Substance-K receptor = Substance-K receptor (Bos taurus, UniProt P05363)
[15] = target: Adrenergic alpha2 receptor (Mesocricetus auratus, UniProt Q60533)
Sequence of Adrenergic alpha2 receptor (Q60533 whole entry): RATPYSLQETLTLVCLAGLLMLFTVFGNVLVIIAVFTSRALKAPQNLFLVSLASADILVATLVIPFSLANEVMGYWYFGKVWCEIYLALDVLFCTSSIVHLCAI

GLRA1 protein = GLRA1 protein (Homo sapiens, UniProt Q14C71)
[16] = target: 5-hydroxytryptamine receptor 2A (Sus scrofa, UniProt P50129)
[17] = target: Sodium-dependent dopamine transporter (Homo sapiens, UniProt Q01959)
Sequence of Sodium-dependent dopamine transporter (Q01959 whole entry): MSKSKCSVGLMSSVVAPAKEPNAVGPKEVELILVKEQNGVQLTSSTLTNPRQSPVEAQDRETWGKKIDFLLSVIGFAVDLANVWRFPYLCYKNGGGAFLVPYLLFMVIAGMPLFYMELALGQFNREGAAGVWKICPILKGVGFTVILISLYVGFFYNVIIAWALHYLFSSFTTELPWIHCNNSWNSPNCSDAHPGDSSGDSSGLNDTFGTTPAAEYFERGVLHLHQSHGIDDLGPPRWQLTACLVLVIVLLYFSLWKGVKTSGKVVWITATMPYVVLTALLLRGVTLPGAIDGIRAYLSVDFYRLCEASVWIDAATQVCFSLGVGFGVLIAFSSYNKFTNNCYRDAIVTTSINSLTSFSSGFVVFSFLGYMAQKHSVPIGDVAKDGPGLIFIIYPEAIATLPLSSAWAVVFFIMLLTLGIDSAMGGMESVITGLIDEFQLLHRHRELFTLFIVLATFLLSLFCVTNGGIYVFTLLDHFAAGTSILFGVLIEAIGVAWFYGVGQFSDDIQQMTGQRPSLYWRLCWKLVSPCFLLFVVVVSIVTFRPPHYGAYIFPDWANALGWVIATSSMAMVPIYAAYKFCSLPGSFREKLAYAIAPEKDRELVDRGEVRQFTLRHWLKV

Adenosine receptor A2a = Adenosine receptor A2a (Homo sapiens, UniProt P29274)
[18] = target: 5-hydroxytryptamine receptor 3A (Homo sapiens, UniProt P46098)
Sequence of 5-hydroxytryptamine receptor 3A (P46098 whole entry): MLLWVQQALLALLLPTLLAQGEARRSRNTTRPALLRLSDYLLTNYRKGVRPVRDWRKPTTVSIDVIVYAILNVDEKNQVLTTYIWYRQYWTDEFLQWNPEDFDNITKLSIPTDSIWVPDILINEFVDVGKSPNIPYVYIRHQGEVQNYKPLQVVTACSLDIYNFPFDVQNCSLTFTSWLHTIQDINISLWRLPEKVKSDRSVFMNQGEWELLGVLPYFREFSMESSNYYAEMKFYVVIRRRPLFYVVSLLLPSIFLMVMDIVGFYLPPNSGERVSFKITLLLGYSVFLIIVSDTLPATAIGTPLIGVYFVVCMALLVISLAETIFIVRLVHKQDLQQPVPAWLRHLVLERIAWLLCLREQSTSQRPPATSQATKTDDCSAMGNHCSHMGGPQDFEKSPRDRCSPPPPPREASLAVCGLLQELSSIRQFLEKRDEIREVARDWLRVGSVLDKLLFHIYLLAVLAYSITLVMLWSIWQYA

[19] = target: Voltage-dependent N-type calcium channel subunit alpha-1B (Rattus norvegicus, UniProt Q02294)
Adenosine receptor A1 = Adenosine receptor A1 (Homo sapiens, UniProt P30542)
D(2) dopamine receptor = D(2) dopamine receptor (Homo sapiens, UniProt P14416)
Substance-P receptor = Substance-P receptor (Homo sapiens, UniProt P25103)
Apamin = Apamin (Apis mellifera, UniProt P01500)

Measured: Ki

Sequence of Histamine H1 receptor (P35367 whole entry): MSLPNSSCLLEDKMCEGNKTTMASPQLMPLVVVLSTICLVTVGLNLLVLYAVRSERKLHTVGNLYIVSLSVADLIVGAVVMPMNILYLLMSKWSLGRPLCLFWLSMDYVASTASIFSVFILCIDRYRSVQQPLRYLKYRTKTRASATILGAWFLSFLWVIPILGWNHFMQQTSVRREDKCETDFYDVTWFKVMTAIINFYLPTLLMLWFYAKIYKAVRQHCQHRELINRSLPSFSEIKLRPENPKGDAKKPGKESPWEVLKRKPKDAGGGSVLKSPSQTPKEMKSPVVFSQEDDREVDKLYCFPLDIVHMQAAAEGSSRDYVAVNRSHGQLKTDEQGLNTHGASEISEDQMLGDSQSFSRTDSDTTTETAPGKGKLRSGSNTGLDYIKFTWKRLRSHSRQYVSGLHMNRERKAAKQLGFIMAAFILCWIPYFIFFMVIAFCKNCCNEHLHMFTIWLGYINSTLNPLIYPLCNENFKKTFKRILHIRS
Sequence of Solute carrier family 22 member 1 (Q63089 whole entry): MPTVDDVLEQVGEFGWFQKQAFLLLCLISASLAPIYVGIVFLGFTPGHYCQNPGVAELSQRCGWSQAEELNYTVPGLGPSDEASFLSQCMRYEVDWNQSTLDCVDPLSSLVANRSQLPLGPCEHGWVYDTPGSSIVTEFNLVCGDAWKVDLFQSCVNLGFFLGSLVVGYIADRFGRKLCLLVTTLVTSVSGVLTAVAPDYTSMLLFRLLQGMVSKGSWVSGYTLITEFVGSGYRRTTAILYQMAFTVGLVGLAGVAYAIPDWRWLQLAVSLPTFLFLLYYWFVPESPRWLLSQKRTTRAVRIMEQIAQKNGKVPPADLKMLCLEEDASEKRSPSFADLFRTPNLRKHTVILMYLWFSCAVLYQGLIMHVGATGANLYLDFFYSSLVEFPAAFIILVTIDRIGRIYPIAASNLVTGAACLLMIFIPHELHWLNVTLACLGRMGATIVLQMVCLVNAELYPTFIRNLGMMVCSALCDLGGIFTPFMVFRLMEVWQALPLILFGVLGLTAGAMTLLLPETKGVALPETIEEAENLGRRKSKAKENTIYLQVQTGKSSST

Cc1cc([C@@H]2CCCN2C)on1 [ABT-418]
> 10 µM: all assays above
